PMC9533879 (European Journal of Medicinal Chemistry, 2021)

Columns and labels:
[1] = tested on: Vaccinia virus (strain Copenhagen); settings: for IC50: read-out: IC50 Vaccinia
[2] = tested on: Vero cell culture

| Molecule | SI (CC50/IC50) Vaccinia [1] | CC50 [2] | IC50 [1] | times less active than the reference compound tecovirimat [1] |
| --- | --- | --- | --- | --- |
| O=C(NNC(=O)c1ccc(C(F)(F)F)cc1)NC12CC3CC(CC(C3)C1)C2 [Compound 20, N^1-(Adamantan-1-yl)-2-(4-(trifluoromethyl)benzoyl)hydrazine-1-carboxamide] | 36.26/2.6 |  |  |  |
| 3-Ethyl-N^1-(4-(trifluoromethyl)benzoyl)adamantane-1-carbohydrazide [Compound 18] | 12.53/3.75 | 47 µM | 12.5 µM |  |
| N^1-(5-Chloroadamantan-2-yl)-4-(trifluoromethyl)benzohydrazide [Compound 28] | 3.52/61 | ~215 µM | 3.52 µM |  |
| O=C(NC12CC3CC(CC(C3)C1)C2)c1ccc(C(F)(F)F)cc1 [Compound 5, N-(Adamantan-1-yl)-4-(trifluoromethyl)benzamide] |  |  |  | 50 |
| C/C(=N\NC(=O)c1ccc(C(F)(F)F)cc1)C12CC3CC(CC(C3)C1)C2 [Compound 31, N^1-(1-(Adamantan-1-yl)ethylidene)-4-(trifluoromethyl)benzohydrazide] | 10.55/>26 |  |  |  |
| O=C(NCC12CC3CC(CC(C3)C1)C2)c1ccc(Br)cc1 [Compound 9, N-((Adamantan-1-yl)methyl)-4-bromobenzamide] | 8.3/28 |  |  |  |
| (rac)-N^1-(1-(Adamantan-1-yl)ethyl)-4-(trifluoromethyl)benzohydrazide [Compound 32] | 0.515/27 | 14 µM | 0.515 µM |  |
| O=C(NNC(=O)C12CC3CC(CC(C3)C1)C2)c1ccc(C(F)(F)F)cc1 [Compound 16, N^1-(4-(Trifluoromethyl)benzoyl)adamantane-1-carbohydrazide] | 1.07/>255 | > 273 µM |  |  |
| N^1-(Adamantan-1-yl)-4-(trifluoromethyl)benzohydrazide [Compound 35] |  | 2.8 µM |  |  |
| CN(C(=O)c1ccc(C(F)(F)F)cc1)C12CC3CC(CC(C3)C1)C2 [Compound 7, N-(Adamantan-1-yl)-N-methyl-4-(trifluoromethyl)benzamide] | 4.85/>61 |  |  |  |
| O=C(NC1C2CC3CC(C2)CC1C3)c1ccc(Br)cc1 (centres unmarked) [Compound 11, N-(Adamantan-2-yl)-4-bromobenzamide] | 3.06/>98 |  |  |  |
| N^1-(3-Ethyladamantan-1-yl)-4-(trifluoromethyl)benzohydrazide [Compound 36] | 1.66/1.5 | 2.5 µM | 1.66 µM |  |
| CC12CC3CC(C1)CC(NC(=O)c1ccc(C(F)(F)F)cc1)(C3)C2 [Compound 37] | 8.98/>33 |  |  |  |
| 3,5-Dimethyl-N^1-(4-(trifluoromethyl)benzoyl)adamantane-1-carbohydrazide [Compound 17] | 30.9/>8.2 | > 254 µM | 30.9 µM |  |
| CCC12CC3CC(C1)CC(NC(=O)c1ccc(C(F)(F)F)cc1)(C3)C2 [Compound 6, N-(3-Ethylаdamantan-1-yl)-4-(trifluoromethyl)benzamide] | 4.1/>68 |  |  |  |
| N^1-(Adamantan-2-yl)-4-(trifluoromethyl)benzohydrazide [Compound 27] | 2.8/>103 | > 296 µM | 2.8 µM |  |
